Experimental data published in US20090005270A1 (priority 2005, published 2009).
Read-outs that look alike come from different tables or passages of the source.

Key:
human recombinant CYP2A6 [1] = molecular target: T1, human recombinant CYP2A6 (Homo sapiens, UniProt P10635); settings: recombinant enzyme
human recombinant CYP2A6 [2] = molecular target: T1, human recombinant CYP2A6; experiment: biochemical
[3] = poor metabolizers, 15 mg dose; cited from earlier work
[4] = in vivo; cited from earlier work
[5] = cited from earlier work
human recombinant CYP3A4 = human recombinant CYP3A4 (Homo sapiens, UniProt P08684); experiment: Inhibition of dibenzylfluorescein metabolism by cDNA-expressed CYP3A4 (fluorimetric); settings: read-out: IC50 (concentration that yields 50% inhibition of the metabolism of dibenzyl-fluorescein), dibenzyl-fluorescein 5 · 10^−7 M
Sequence of human recombinant CYP3A4 (P08684 whole entry): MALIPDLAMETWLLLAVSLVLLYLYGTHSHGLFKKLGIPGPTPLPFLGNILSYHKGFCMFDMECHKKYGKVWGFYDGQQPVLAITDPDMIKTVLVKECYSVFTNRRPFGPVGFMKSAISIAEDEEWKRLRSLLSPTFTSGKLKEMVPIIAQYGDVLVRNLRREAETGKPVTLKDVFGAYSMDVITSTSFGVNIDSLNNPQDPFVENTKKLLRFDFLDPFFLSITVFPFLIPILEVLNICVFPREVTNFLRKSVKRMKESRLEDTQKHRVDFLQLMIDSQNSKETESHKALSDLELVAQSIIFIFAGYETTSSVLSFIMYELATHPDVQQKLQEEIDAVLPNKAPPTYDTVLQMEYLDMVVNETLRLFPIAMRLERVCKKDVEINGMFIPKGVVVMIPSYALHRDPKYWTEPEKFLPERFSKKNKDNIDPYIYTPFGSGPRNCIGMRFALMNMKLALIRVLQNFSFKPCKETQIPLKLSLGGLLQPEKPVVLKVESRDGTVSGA

T1 sequence (P10635 whole entry): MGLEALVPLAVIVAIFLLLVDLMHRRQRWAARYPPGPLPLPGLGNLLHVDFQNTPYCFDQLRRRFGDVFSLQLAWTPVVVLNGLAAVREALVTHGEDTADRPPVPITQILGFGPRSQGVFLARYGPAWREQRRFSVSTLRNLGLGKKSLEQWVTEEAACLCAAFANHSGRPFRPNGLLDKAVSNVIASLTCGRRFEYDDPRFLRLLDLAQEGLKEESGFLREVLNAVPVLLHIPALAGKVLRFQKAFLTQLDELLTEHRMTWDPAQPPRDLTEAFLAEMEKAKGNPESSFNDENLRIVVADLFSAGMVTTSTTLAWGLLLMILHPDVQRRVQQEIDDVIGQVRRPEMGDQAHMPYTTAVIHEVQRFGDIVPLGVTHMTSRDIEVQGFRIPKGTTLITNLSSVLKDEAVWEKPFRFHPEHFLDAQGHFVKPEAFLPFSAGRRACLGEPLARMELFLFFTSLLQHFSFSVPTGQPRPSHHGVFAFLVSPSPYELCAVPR

Compound: CN1CC[C@]23CCCC[C@H]2[C@H]1Cc1ccc(OCC(F)(F)F)cc13 [O-(2,2,2-trifluoroethyl)-N-methylmorphinan]
- IC50 (human recombinant CYP2A6 [1]): 425 nM

Compound: Br.COc1ccc2c(c1)[C@@]13CCCC[C@H]1[C@@H](C2)N(C)CC3.O [Dextromethorphan, 3 Methoxy-17-methylmorphinan hydrobromide monohydrate]
- IC50 (human recombinant CYP2A6 [2]): 1820 nM
- ratio of metabolite to parent drug in 8 hour urine sample [3]: 10 to 1
- part of the dose forming minor metabolites (D-methoxymorphinane, D-hydroxmorphinane) [4]: Less than 15%
- plasma level ([5]; fast metabolizers, 30 mg dose, four hours post ingestion): less than 5 ng/mL
- plasma level ([5]; intermediate metabolizers, oral 30 mg, 4 hours): 10 to 20 ng/mL
- plasma level ([5]; intermediate metabolizers, oral 30 mg, 24 hours postingestion): less than 5 ng/mL
- plasma level ([5]; oral 30 mg, 4 hours (continues the poor metabolizers passage of b121)): greater than 10 ng/mL
- plasma level ([5]; oral 30 mg, 24 hours (continues the poor metabolizers passage of b121)): greater than 5 ng/mL

Compound: COc1ccc(CCN(CCCC(C#N)(c2ccc(OC)c(OC)c2)C(C)C)CC(F)(F)F)cc1OC (stereo not shown) [N-(2,2,2-trifluoroethyl)norverapamil]
- IC50 (human recombinant CYP3A4): 1930 nM
